The format of data set [1] is physicochemical. Here is the method:
50 mL of each of SAL and acrolein was charged in 50-mL three-necked flask, and the contents were subjected to temperature rise to 50° C. in a nitrogen atmosphere. On the occasion when the content of each of SAL and acrolein immediately after the temperature rise was defined as 100%, a change of the content ratio was observed according to the calibration curve method by means of gas chromatography with an internal standard.
[Gas Chromatography Analysis]
Analysis Instrument: GC-14A (Available from Shimadzu Corporation) Detector: FID (Hydrogen Flame Ionization Detector)
Column used: DB-1701 (length: 50 m, film thickness: 1 μm, inner diameter: 0.32 mm) (available from Agilent Technologies)
Analysis conditions: Injection temperature: 250° C., detection temperature: 250° C.
Temperature rise conditions: 70° C.→(temperature rise at 5° C./min)→250° C.
Internal standard substance: Diglyme (diethylene glycol dimethyl ether)

Data set [2] in a line: Hydrogen sulfide removal in distilled water (autoclave). The following applies: distilled water, 5,000 ppm added, 80° C., 5 hours. Here is the method: 20 g of distilled water was put into a 100-mL autoclave equipped with a thermometer and a stirrer, and pressurized up to 0.3 MPa with a mixed gas having a composition of 1 vol % of hydrogen sulfide and 99 vol % of nitrogen introduced thereinto. This was stirred until the hydrogen sulfide concentration in the vapor phase part became constant, and then the hydrogen sulfide concentration in the vapor phase part in the autoclave was measured with a Kitagawa gas detector (here, a […] available from Komyo Rikagaku Kogyo K.K. was attached to the gas collector “AP-20”), and was 7,500 ppm by volume. Next, SAL was added thereto in an amount to be 5,000 ppm relative to the distilled water. The amount of SAL added was 1.19 mmol, and the amount of hydrogen sulfide existing in the apparatus was 0.10 mmol. Subsequently, the apparatus was heated up to 80° C. with stirring at 800 rpm to continue the reaction for 5 hours. After the reaction, the system was cooled down to room temperature, and the hydrogen sulfide concentration in the vapor phase part was measured and was 5,000 ppm by volume. The removal rate was 33%.
The same test as in Example 2 was carried out except that acrolein was used in place of SAL. After the reaction, the hydrogen sulfide concentration in the vapor phase part was measured and was 5,000 ppm by volume. The removal rate was 33%.

For data set [3] the following is noted: cited from earlier work.
For the next data set, the system named is Rat. The following applies: versus acrolein; cited from earlier work.
Data set [4] in a line: Hydrogen sulfide removal in kerosene (three-neck flask). The following applies: 20 g kerosene, 1.5 g added, room temperature, 5 hours. The procedure:
20 g of kerosene (available from FUJIFILM Wako Pure Chemical Corporation) was put into a 50-mL three-neck flask, and a mixed gas having a composition of 1 vol % of hydrogen sulfide and 99 vol % of nitrogen was made to circulate therein at a flow rate of 50 mL/min to thereby purge the vapor in the three-neck flask with stirring at 800 rpm. After 2 hours, the circulation of the mixed gas was stopped, then the three-neck flask was sealed up, and the hydrogen sulfide concentration in the vapor phase part in the three-neck flask was measured with a Kitagawa gas detector and was 8,200 ppm by volume. Next, 1.5 g of SAL was added thereto and reacted for 5 hours at room temperature with stirring the apparatus at 800 rpm. After the reaction, the hydrogen sulfide concentration in the vapor phase part in the three-neck flask was measured and was 5,300 ppm by volume. The removal rate was 35%.
After the reaction, the hydrogen sulfide concentration in the vapor phase part in the three-neck flask was measured and was 6,600 ppm by volume. The removal rate was 20%.

The format of data set [5] is physicochemical. The following applies: pH 1.7. The procedure:
Each of SAL and acrolein was dissolved in 0.5 mol/L of phosphoric acid buffer solutions having a pH different from each other, thereby preparing 0.1 wt % solutions. 50 mL of each of the solutions was charged in a sample vial in a nitrogen atmosphere and stored at 23±2° C. On the occasion when the content of each of SAL and acrolein at the time of preparation was defined as 100%, a change of the content ratio was observed according to the absolute calibration curve by means of high-performance liquid chromatography analysis.
[Preparation of Phosphoric Acid Buffer Solution]
pH 1.7: 4.9 g of 75% phosphoric acid and 7.8 g of sodium dihydrogen phosphate dihydrate were dissolved in 200 mL of distilled water.
pH 6.2: 7.8 g of sodium dihydrogen phosphate dihydrate and 7.1 g of disodium hydrogen phosphate were dissolved in 200 mL of distilled water.
pH 8.1: 0.3 g of sodium dihydrogen phosphate dihydrate and 13.9 g of disodium hydrogen phosphate were dissolved in 200 mL of distilled water.
[High-Performance Liquid Chromatography Analysis]
Analysis Instrument: Prominence System (Available from Shimadzu Corporation)
Column used: Cadenza CD-C18 (length: […], inner diameter: 4.6 mm)
Developing solution: H2O/MeOH=45/55 (volume ratio), H3PO4=1 mol/L

[6] abbreviates: 50° C., nitrogen atmosphere, 0 hour (defined as 100%).
Where [7] appears, read: 50° C., nitrogen atmosphere, 2 hours elapsed.
[8] abbreviates: 50° C., nitrogen atmosphere, 4 hours elapsed.
The mark [9] stands for this setting: 50° C., nitrogen atmosphere, 6 hours elapsed.
[10] abbreviates: 50° C., nitrogen atmosphere, 10 hours elapsed.

Like-named read-outs stand apart in the source and are kept apart here.

As for `C=CC=O` [Acrolein, acrolein, reference compound], the content ratio in data set [1] (setting [6]) is 100.0%; in data set [1] (setting [7]), 99.5%; in data set [1] (setting [8]) it was 98.3%; in data set [1] (setting [9]), 98.1%; in data set [1] (setting [10]) it was 96.6%. Besides, the ratio lost in data set [1] (50° C., nitrogen atmosphere, after 10 hours) came to 3.4%. Besides, the removal rate in data set [2] came to 33%. Further, the “Fire Service Act water solubility class” value in data set [3] was “water-insoluble”.

On to `CC(C)=CCCC(C)=CC=O` [Citral, 3,7-dimethyl-2,6-octadienal], for which the “toxicity and safety (comparison in words)” value with Rat is “extremely low in the toxicity and safe as compared with acrolein”. The removal rate in data set [4] amounted to 20%.

`CC(C)=CC=O` [SAL, 3-methyl-2-butenal]: the “toxicity and safety (comparison in words)” value in the data set on Rat was “extremely low in the toxicity and safe as compared with acrolein”. In addition, the “thermal stability (comparison in words)” value in data set [1] is given as “extremely high in the thermal stability as compared with acrolein”. The content ratio in data set [1] (setting [6]) was determined as 100.0%; in data set [1] (setting [7]), 100.0%; in data set [1] (setting [8]) it was 100.0%; in data set [1] (setting [9]), 100.0%; in data set [1] (setting [10]) it was 99.9%. Moreover, the “pH stability (comparison in words)” value in data set [5] was “extremely high in the pH stability as compared with acrolein”. Further, the figures for the removal rate in data set [2] and in data set [4] were 33% and 35%, respectively. Moreover, the “Fire Service Act water solubility class” value in data set [3] is “water-insoluble”.

(Values after patent US11291947B2, “Composition for removing sulfur-containing compound” (KURARAY CO., LTD., priority 2016, dated 2022).)
